Test results published in publication doi:10.1101/2020.07.12.199869v2 (bioRxiv, 2020).

Test system: PGP/syndapin-2
Assay: Proximity ligation assay PGP/syndapin-2 in BECs
Format: cell-based, mouse
Settings: polarised BECs, FAM-Aβ (1-40) 500 nM, 15 minutes; n = 60 images

Q: Which “change in interaction of syndapin-2 with PGP (PLA dots)” value does the source give for “5-Fluorescein-amyloid-β protein (Aβ 1-40) [FAM-Aβ (1-40)]” here?
A: no significant difference
